In patent US20090099167A1, “Organic compounds” (Novartis Institutes for Biomedical Research, priority 2004, published 2009):

Molecular target: T1, human EphB4 receptor (Homo sapiens, UniProt P54760)
T1 construct: made in house; host or cells: Sf9 or Sf21 (baculovirus)
T1 sequence (P54760 566-987): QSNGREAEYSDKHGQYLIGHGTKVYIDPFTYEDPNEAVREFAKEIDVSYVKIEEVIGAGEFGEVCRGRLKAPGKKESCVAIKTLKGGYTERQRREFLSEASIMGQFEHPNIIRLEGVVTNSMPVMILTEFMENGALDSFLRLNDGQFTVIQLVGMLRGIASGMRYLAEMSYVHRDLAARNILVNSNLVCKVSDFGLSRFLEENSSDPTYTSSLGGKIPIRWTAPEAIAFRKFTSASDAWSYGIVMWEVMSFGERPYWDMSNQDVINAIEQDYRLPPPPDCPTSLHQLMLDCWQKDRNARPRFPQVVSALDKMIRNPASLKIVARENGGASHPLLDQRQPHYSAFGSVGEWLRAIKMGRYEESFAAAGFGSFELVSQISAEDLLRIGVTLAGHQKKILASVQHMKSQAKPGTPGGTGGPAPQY
Test: EphB4 kinase assay, GST-EphB, 33P incorporation into poly(Glu,Tyr)
Format: biochemical
Conditions: Table 4; read-out: EphB4, activity (IC50 for kinase inhibition)
Source text: EphB4: Production and measure of enzymatic activity: Generation of Bac-to-Bac™ (Initrogen Life Technologies, Basel, Switzerland) GST-fusion expression vectors: Entire cytoplasmatic coding regions of the EphB-class are amplified by PCR from cDNA libraries derived from human placenta or brain, respectively. Recombinant baculovirus are generated that express the amino acid region 566-987 of the human EphB4 receptor (SwissProt Database, Accession No. P54760). GST sequence is cloned into pFastBac1® vector (Invitrogen Life Technologies, Basel, Switzerland) and PCR amplified. cDNAs encoding EphB4-receptor domains, respectively, are cloned in frame 3′prime to the GST sequence into this modified FastBac1 vector to generate pBac-to-Bac™ donor vectors. Single colonies arising from the transformation are inoculated to give overnight cultures for small scale plasmid preparation. […] By automated sequencing the inserts and approximately 50 bp of the flanking vector sequences are confirmed on both strands. Production of viruses: Viruses for each of the kinases are made according to the protocol supplied by GIBCO if not stated otherwise. In brief, transfer vectors containing the kinase domains are transfected into the DH10Bac cell line (GIBCO) and plated on selective agar plates. Colonies without insertion of the fusion sequence into the viral genome (carried by the bacteria) are blue. Single white colonies are picked and viral DNA (bacmid) isolated from the bacteria by standard plasmid purification procedures. Sf9 cells or Sf21 cells are then transfected in 25 cm2 flasks with the viral DNA using Cellfectin reagent according to the protocol. Purification of GST-tagged kinases: The centrifuged cell lysate is loaded onto a 2 mL glutathione-sepharose column (Pharmacia) and washed three times with 10 mL of 25 mM Tris-HCl, pH 7.5, 2 mM EDTA, 1 mM DTT, 200 mM NaCl. The GST-tagged proteins are then eluted by 10 applications (1 mL each) of 25 mM Tris-HCl, pH 7.5, 10 mM reduced-glutathione, 100 mM NaCl, 1 mM DTT, 10% Glycerol and stored at −70° C. Protein kinase assays: The activities of protein kinases are assayed in the presence or absence of inhibitors, by measuring the incorporation of 33P from [γ33P]ATP into a polymer of glutamic acid and tyrosine (poly(Glu,Tyr)) as a substrate. The kinase assays with purified GST-EphB (30 ng) are carried out for 15-30 min at ambient temperature in a final volume of 30 μL containing 20 mM Tris.HCl, pH 7.5, 10 mM MgCl2, 3-50 mM MnCl2, 0.01 mM Na3VO4, 1% DMSO, 1 mM DTT, 3 μg/mL poly(Glu,Tyr) 4:1 (Sigma; St. Louis, Mo., USA) and 2.0-3.0 μM ATP (γ-[33P]-ATP 0.1 μCi). The assay is terminated by the addition of 20 μL of 125 mM EDTA. Subsequently, 40 μl of the reaction mixture are transferred onto Immobilon-PVDF membrane (Millipore, Bedford, Mass., USA) previously soaked for 5 min with methanol, rinsed with water, then soaked for 5 min with 0.5% H3PO4 and mounted on vacuum manifold with disconnected vacuum source. After spotting all samples, vacuum is connected and each well rinsed with 200 μl 0.5% H3PO4. Membranes are removed and washed 4× on a shaker with 1.0% H3PO4, once with ethanol. Membranes are counted after drying at ambient temperature, mounting in Packard TopCount96-well frame, and addition of 10 μL/well of Microscint™ (Packard). IC50 values are calculated by linear regression analysis of the percentage inhibition of each compound in duplicate, at four concentrations (usually 0.01, 0.1, 1 and 10 μM). One unit of protein kinase activity is defined as 1 nmole of 33P ATP transferred from [γ33P] ATP to the substrate protein per minute per mg of protein at 37° C. Compounds of formula I show EphB4 inhibition down to 10 nM, preferably IC50 values between 0.01-1.0 μM.

SMILES | IC50
CN1CCN(c2ccc(-c3cnn4c(N)c(-c5cccc(O)c5)cnc34)cc2)CC1 [Example 1, 3-{7-Amino-3-[4-(4-methyl-piperazin-1-yl)-phenyl]-pyrazolo[1,5-a]pyrimidin-6-yl}-phenol] | < 10000 nM
CN1CCN(c2cccc(-c3cnn4c(N)c(-c5cccc(O)c5)cnc34)c2)CC1 [Example 29, 3-{7-Amino-3-[3-(4-methyl-piperazin-1-yl)-phenyl]-pyrazolo[1,5-a]pyrimidin-6-yl}-phenol] | < 10000 nM
Nc1c(-c2cccc(O)c2)cnc2c(-c3cccnc3)cnn12 [Example 46, 3-[7-Amino-3-pyridin-3-yl-pyrazolo[1,5-a]pyrimidin-6-yl]-phenol] | < 10000 nM
COc1ccccc1-c1cnn2c(N)c(-c3cccc(O)c3)cnc12 [Example 48, 3-[7-Amino-3-(2-methoxy-phenyl)-pyrazolo[1,5-a]pyrimidin-6-yl]-phenol] | < 10000 nM
COc1cccc(-c2cnn3c(N)c(-c4cccc(O)c4)cnc23)c1 [Example 60, 3-[7-Amino-3-(3-methoxy-phenyl)-pyrazolo[1,5-a]pyrimidin-6-yl]-phenol] | < 10000 nM

Same assay, conditions: Table 5; read-out: EphB4, IC50 class

SMILES | IC50
Cc1nc2c(-c3cccc(N4CCN(C)CC4)c3)cnn2c(N)c1-c1cccc(Cl)c1 [Example 72, 6-(3-Chloro-phenyl)-5-methyl-3-[3-(4-methyl-piperazin-1-yl)-phenyl]-pyrazolo[1,5-a]pyrimidin-7-ylamine] | < 1000 nM
Cc1nc2c(-c3ccc(N4CCN(C)CC4)cc3)cnn2c(N)c1-c1cccc(Cl)c1 [Example 73, 6-(3-Chloro-phenyl)-5-methyl-3-[4-(4-methyl-piperazin-1-yl)-phenyl]-pyrazolo[1,5-a]pyrimidin-7-ylamine] | < 1000 nM
COc1cc(N2CCN(C)CC2)ccc1-c1cnn2c(N)c(-c3cccc(Cl)c3)c(C)nc12 [Example 75, 6-(3-Chloro-phenyl)-3-[2-methoxy-4-(4-methyl-piperazin-1-yl)-phenyl]-5-methyl-pyrazolo[1,5-a]pyrimidin-7-ylamine] | < 1000 nM
COc1cc(N2CCN(C)CC2)ccc1-c1cnn2c(N)c(-c3cccc(O)c3)cnc12 [Example 76, 3-{7-Amino-3-[2-methoxy-4-(4-methyl-piperazin-1-yl)-phenyl]-pyrazolo[1,5-a]pyrimidin-6-yl}-phenol] | < 1000 nM
CN1CCN(c2ccc(-c3cnn4c(N)c(-c5ccccc5Cl)cnc34)cc2)CC1 [Example 77, 6-(2-Chloro-phenyl)-3-[4-(4-methyl-piperazin-1-yl)-phenyl]-pyrazolo[1,5-a]pyrimidin-7-ylamine] | < 1000 nM
CN1CCN(c2cccc(-c3cnn4c(N)c(-c5ccccc5Cl)cnc34)c2)CC1 [Example 78, 6-(2-Chloro-phenyl)-3-[3-(4-methyl-piperazin-1-yl)-phenyl]-pyrazolo[1,5-a]pyrimidin-7-ylamine] | < 1000 nM
Cc1nc2c(-c3ccc(N4CCN(C)CC4)cc3)cnn2c(N)c1-c1ccc(F)cc1 [Example 79, 6-(4-Fluoro-phenyl)-5-methyl-3-[4-(4-methyl-piperazin-1-yl)-phenyl]-pyrazolo[1,5-a]pyrimidin-7-ylamine] | < 1000 nM
Cc1nc2c(-c3cccc(N4CCN(C)CC4)c3)cnn2c(N)c1-c1ccc(F)cc1 [Example 80, 6-(4-Fluoro-phenyl)-5-methyl-3-[3-(4-methyl-piperazin-1-yl)-phenyl]-pyrazolo[1,5-a]pyrimidin-7-ylamine] | < 1000 nM
Cc1nc2c(-c3cccc(N4CCN(C5CCN(C)CC5)CC4)c3)cnn2c(N)c1-c1cccc(Cl)c1 [Example 81, 6-(3-Chloro-phenyl)-5-methyl-3-{3-[4-(1-methyl-piperidin-4-yl)-piperazin-1-yl]-phenyl}-pyrazolo[1,5-a]pyrimidin-7-ylamine] | < 1000 nM
Cc1nc2c(-c3cccc(N4CCN(C)CC4)c3)cnn2c(N)c1-c1ccc(F)c(Cl)c1 [Example 82, 6-(3-Chloro-4-fluoro-phenyl)-5-methyl-3-[3-(4-methyl-piperazin-1-yl)-phenyl]pyrazolo[1,5-a]pyrimidin-7-ylamine] | < 1000 nM
Cc1nc2c(-c3ccc(N4CCN(C)CC4)cc3)cnn2c(N)c1-c1ccc(F)c(Cl)c1 [Example 83, 6-(3-Chloro-4-fluoro-phenyl)-5-methyl-3-[4-(4-methyl-piperazin-1-yl)-phenyl]-pyrazolo[1,5-a]pyrimidin-7-ylamine] | < 1000 nM
Cc1nc2c(-c3cccc(N4CCN(C)CC4)c3)cnn2c(N)c1-c1cccc(Br)c1 [Example 84, 6-(3-Bromo-phenyl)-5-methyl-3-[3-(4-methyl-piperazin-1-yl)-phenyl]-pyrazolo[1,5-a]pyrimidin-7-ylamine] | < 1000 nM
CN1CCN(c2cccc(-c3cnn4c(N)c(Cc5cccc(Br)c5)cnc34)c2)CC1 [Example 85, 6-(3-Bromo-benzyl)-3-[3-(4-methyl-piperazin-1-yl)-phenyl]pyrazolo[1,5-a]pyrimidin-7-ylamine] | 1000 to 10000 nM
CN1CCN(c2cccc(-c3cnn4c(N)c(-c5cccc(Br)c5)cnc34)c2)CC1 [Example 86, 6-(3-Bromo-phenyl)-3-[3-(4-methyl-piperazin-1-yl)-phenyl]-pyrazolo[1,5-a]pyrimidin-7-ylamine] | 1000 to 10000 nM
COc1ccc(-c2cnn3c(N)c(-c4cccc(Cl)c4)c(C)nc23)cc1 [Example 88, 6-(3-Chloro-phenyl)-3-(4-methoxy-phenyl)-5-methyl-pyrazolo[1,5-a]pyrimidin-7-ylamine] | < 1000 nM
Cc1nc2c(-c3cccc(N4C[C@@H](C)O[C@@H](C)C4)c3)cnn2c(N)c1-c1cccc(Cl)c1 [Example 89, 6-(3-Chloro-phenyl)-3-[3-((2R,6S)-2,6-dimethyl-morpholin-4-yl)-phenyl]-5-methyl-pyrazolo[1,5-a]pyrimidin-7-ylamine] | < 1000 nM
Cc1nc2c(-c3cccc(N4CCN(CCO)CC4)c3)cnn2c(N)c1-c1cccc(Cl)c1 [Example 90, 2-(4-{3-[7-Amino-6-(3-chloro-phenyl)-5-methyl-pyrazolo[1,5-a]pyrimidin-3-yl]-phenyl}-piperazin-1-yl)-ethanol] | < 1000 nM
CN1CCN(c2cccc(-c3cnn4c(N)c(Cc5ccccc5)cnc34)c2)CC1 [Example 91, 6-Benzyl-3-[3-(4-methyl-piperazin-1-yl)-phenyl]-pyrazolo[1,5-a]pyrimidin-7-ylamine] | < 1000 nM
COc1ccc(-c2cnn3c(N)c(-c4cccc(Cl)c4)c(CF)nc23)cc1OC [Example 92, 6-(3-Chloro-phenyl)-3-(3,4-dimethoxy-phenyl)-5-fluoromethyl-pyrazolo[1,5-a]pyrimidin-7-ylamine] | < 1000 nM
COc1ccc(-c2cnn3c(N)c(-c4cccc(Cl)c4)c(C)nc23)cc1OC [Example 93, 6-(3-Chloro-phenyl)-3-(3,4-dimethoxy-phenyl)-5-methyl-pyrazolo[1,5-a]pyrimidin-7-ylamine] | < 1000 nM
